In one data set the test system is Yoshida sarcoma. The format is in vivo, rat (male Sprague-Dawley rats). The settings on record: for M = median survival time: i.p. day 8. On the procedure:
The chemotherapeutic activity of nitrosoureas was compared in antitumor tests using Yoshida sarcoma ascited cells implanted into the wall of the descending colon in Sprague-Dawley rats.
(§1) Male Sprague-Dawley rats were used in the experiments. Yoshida sarcome in ascites form was maintained in the same strain of rats by serial intraperitoneal injection of 0,5 ml of ascites fluid.
(§2) 3×10^6 cells were injected into the colon wall in a manner known per se. The chemotherapeutic treatment was carried out on the eighth day after implantation of the tumor cells.
(§3) Water-insoluble compounds were dissolved in Cremophor EL/ethanol/physiological saline (20:20:60: vol.%). Water-soluble substances were dissolved in physiological saline. Cremophor EL is a surfactant on the basis of polyethoxylated castor oil. All test compounds were administered introperitoneally. The nitrosoureas were applied at approximately equitoxic doses corresponding to about 80% of the acute LD50 values observed in healthy rats of the same strain over a 28-day observation period.
Each experiment involved an untreated control group and a varying number of treated groups. Individual survival times were counted as days after tumor inoculation. At the time of death a record of whether an animal was tumor-free or not was made. All animals alive 120 days after tumor inoculation were killed. Animals that according to macroscopic examination had no tumor at the end of the experiment were considered as cured. Since in a number of control rats also no tumors occurred after 120 days the differences in cures between controls and treated animals rather than absolute numbers are reported. Differences in survival were evaluated statistically by individual comparisons between treated rats and controls using a nonparametric log-rank test (Kalbfleisch and Prentice, The statistical analysis of failure time data, Wiley, New York, 1979). Numerical evaluation was performed using a computerized system.

The nature of data set [1]: Mean animal weight / weight gain after tumor transplantation. The format is in vivo, rat (Sprague-Dawley rats). The conditions noted are these: CP 70 (exp. 1-3), BCNU 25, MeCCNU 45 (exp. 1), picolyl-3-CNU 25, its HCl 25 (exp. 2), morpholino-CNU 28, piperidino-CNU 15 (exp. 3), dimethylmorpholino-CNU 45 mg/kg (exp. 4); for Mean animal weight on day 50: day 50 after tumor transplantation; for Mean animal weight on day 100: day 100 after tumor transplantation. As to the method: as §1, §2, §3
In all treated animals and at all doses tested the mean weight gain was lower than in the controls. Table 3 gives the mean animal weights measured 50 and 100 days after tumor transplantation in experiments 1 to 5.

A further data set deals with rat leukemia L 5222. The data set can be described thus: Chemotherapeutic activity against rat Leukemia L5222. The format is in vivo, rat (BD IX rats). As to the method:
Chemotherapeutic activity of methylformylamino-CNU against rat Leukemia L5222 (CNU=chloroethyl-nitroso-urea)
The compound to be tested was solved in Chremophor EL/ethanol/physiological saline and a single dose was administered intraperitoneally into tumor inoculated BD IX rats. The experiment involved an untreated control group and a number of treated groups. The doses used and the effects of the praeterminal treatment are summarized in the following Table from which the cures (animals free of tumor after 120 days) and the increase in life span (ILS, expressed as percentage of survival of the treated test group to the untreated control group) are evident.
Considering the fact that the true measure of the effectiveness of a drug against a neoplastic desease is the ability of the drug to kill the neoplastic cells at dosages that are not toxic to the host animal and that a quantitative evaluation of drug action is usually obtained by using the L1210 leucemia system in mice, it will be realized that in this test the tumor cells are injected into the peritoneal cavity of a mouse which thereafter is treated with the drug to be tested at a very early time after the inoculation of the tumor, i.e. at the first or second day after tumor inoculation. Thus such screening is done under very favourable test conditions for the drug. Contrary thereto the administration of the drug to be tested is performed relatively late in the case of the rat leucemia L5222, i.e. at the 8th day after tumor inoculation. It must, therefore, be taken that at that time tumor cells have colonized the cerebral region, i.e. the meninges, so that cures can only be obtained if the drug has an activity high enough to kill the leucemia cells in the cerebral region in a praeterminal state. Thus by far more severe test conditions are involved when treating rat leucemia L5222 or type Yoshida sarcoma which is a tumor model and which are hard to influence by known drugs.

Setting [2] is: Experiment 2, CP 70, picolyl-3-CNU 25, picolyl-3-CNU.HCl 25 mg/kg.
Setting [3] is: Experiment 2, CP 70, picolyl-3-CNU 25, picolyl-3-CNU.HCl 25 mg/kg, 30 initial animals each.
[4] abbreviates: Experiment 5, CP 70, picolyl-3-CNU.HCl 25, morpholino-CNU 28, piperidino-CNU 15 mg/kg.
The mark [5] stands for this setting: Experiment 5, CP 70, picolyl-3-CNU.HCl 25, morpholino-CNU 28, piperidino-CNU 15 mg/kg, 15 initial animals (picolyl-3-CNU.HCl 14).
Setting [6] is: single i.p. dose printed 279 mg/kg.

Structures can show the parent of a compound that is named as a salt. Where two headings read alike, the source gives them in different places.

Take `O=NN(CCCl)C(=O)NCc1cccnc1` [Picolyl-3-CNU.HCl, [1-(2-chloroethyl)-1-nitroso-3-(methylene-3-pyridilium)-ureido]-chloride]: the “increase in tumor-free animals (cures) above controls” value with Yoshida sarcoma (120 days, CP (exp. 1-3), BCNU, MeCCNU 45, dimethylmorpholine-CNU 45, piperidino-CNU 15, picolyl-3-CNU.HCl 25 mg/kg) is 15%. For the same molecule, in the data set with Yoshida sarcoma (setting [2]), the “% M (median survival time, untreated control = 100)” value amounted to 125%; the “D1-120 = difference (%) between tf1-120 of treated and untreated animals” value was determined as 18%; the “D120 = difference (%) between tf120 of treated and untreated animals” value (shortened to “D120 = difference (%) between tf120”) worked out at 15%; the “tf1-120 (%) (tf120 + animals dying of toxicity)” value stood at 40%. Also, in the data set on Yoshida sarcoma (setting [2]), the “tf120 (%) (animals surviving day 120 without tumor)” value is listed as 37% and the “M = median survival time” value turned out to be 27 days. In the data set on Yoshida sarcoma (setting [3]), the “tf1-120, No. (tf120 + animals dying of toxicity)” value is recorded as 12 and the “tf120, No. (animals surviving day 120 without tumor)” value is listed as 11. In the data set on Yoshida sarcoma (setting [4]), the “% M (median survival time, untreated control = 100)” value was 150%; the “D1-120 = difference (%) between tf1-120 of treated and untreated animals” value worked out at 0%; the “D120 = difference (%) between tf120” value was 0%; the “M = median survival time” value is 15 days. For the same molecule, in the data set on Yoshida sarcoma (setting [5]), the “tf1-120, No. (tf120 + animals dying of toxicity)” value is on record as 0 and the “tf120, No. (animals surviving day 120 without tumor)” value is recorded as 0. Besides, in the data set on Yoshida sarcoma (experiments 1-4, MeCCNU 45, morpholino-CNU 28 (exp. 3 and 5), dimethylmorpholine-CNU 45, piperidino-CNU 15, picolyl-3-CNU 25, picolyl-3-CNU.HCl 25 mg/kg), the “effect on survival time / life expectancy (in words)” value is on record as “without resulting in a significant increase in survival”. Besides, in data set [1], the “Mean animal weight on day 50” value is reported as 250 g and the “Mean animal weight on day 100” value was 260 g.
In the case of `CN(C=O)NC(=O)N(CCCl)N=O` [methylformylamino-CNU, 1-(2-chloroethyl)-1-nitroso-3-(methyl-formyl-amino)urea], the “effectiveness in rat leukemia L 5222 (in words)” value in the data set with rat leukemia L 5222 (rat, in vivo) was “active”. Moreover, the “ILS (increase in life span)” value in the data set with rat leukemia L 5222 (single i.p. dose 7 mg/kg) is recorded as 70%; in the data set with rat leukemia L 5222 (single i.p. dose 70 mg/kg), 610%; with rat leukemia L 5222 (single i.p. dose 88 mg/kg) it was 230%; in the data set on rat leukemia L 5222 (single i.p. dose 111 mg/kg), 250%; in the data set on rat leukemia L 5222 (single i.p. dose 176 mg/kg), 40%; in the data set on rat leukemia L 5222 (single i.p. dose 11,1 mg/kg), 100%. In addition, the “ILS (increase in life span)” value worked out at 150% in the data set with rat leukemia L 5222 (single i.p. dose 17,6 mg/kg), 150% in the data set with rat leukemia L 5222 (single i.p. dose 44,2 mg/kg) and 175% with rat leukemia L 5222 (setting [6]). In addition, the “cures (animals free of tumor after 120 days)” value with rat leukemia L 5222 (single i.p. dose 7 mg/kg, 7 mg/kg) was 3/8 and three cured animals out of eight; with rat leukemia L 5222 (single i.p. dose 70 mg/kg), 3/9; with rat leukemia L 5222 (single i.p. dose 88 mg/kg), 2/6; with rat leukemia L 5222 (single i.p. dose 11,1 mg/kg) it was 2/8; in the data set with rat leukemia L 5222 (single i.p. dose 17,6 mg/kg) it was 2/8; in the data set with rat leukemia L 5222 (single i.p. dose 44,2 mg/kg), 2/8. Further, the “cures (animals free of tumor after 120 days)” value in the data set with rat leukemia L 5222 (setting [6]) is 3/8.
Take `O=NN(CCCl)C(=O)NCc1cccnc1` [Picolyl-3-CNU, 1-(2-chloroethyl)-1-nitroso-3-(methylene-3-pyridyl)-urea]: in the data set on Yoshida sarcoma (setting [2]), the “% M (median survival time, untreated control = 100)” value amounted to 130%; the “D1-120 = difference (%) between tf1-120 of treated and untreated animals” value was found to be 1%; the “D120 = difference (%) between tf120” value is on record as -2%; the “tf1-120 (%) (tf120 + animals dying of toxicity)” value was found to be 23%. Further, in the data set on Yoshida sarcoma (setting [2]), the “tf120 (%) (animals surviving day 120 without tumor)” value is reported as 20% and the “M = median survival time” value was 28 days. Moreover, in the data set with Yoshida sarcoma (setting [3]), the “tf1-120, No. (tf120 + animals dying of toxicity)” value is 7 and the “tf120, No. (animals surviving day 120 without tumor)” value is 6. For the same molecule, in data set [1], the “Mean animal weight on day 50” value was found to be 250 g and the “Mean animal weight on day 100” value was found to be 250 g. For the same molecule, the “water solubility (in words)” value in “Water solubility” is given as “water-insoluble”.
